Molecules are shown by their SMILES. Structures can show the parent of a compound that is named as a salt.

Data set [1] can be described thus: Recovery in urine after oral administration to mice (paper-disc assay). To be noted: 0.5 mg per mouse, suspension in 0.2% CMC, urine to 4 hours, molar % as free carboxylic acid form, average of three mice, E. coli K-12 8236 bioassay, read-out: Rate of recovery of the test compound in urine. Format: in vivo, mice of ICR-strain (male). An excerpt: The new cephalosporin compound of this invention as orally administered is easily absorbed through the intestines by a living animal and maintains its antibacterial activity to a substantial extent in the body of the animal until it is excreted in the urine of the animal, and this may be observed by determining the remaining amount of the cephalosporin compound of this invention which can be recovered in the urine without receiving a substantial degradation of the compound in vivo. Some tests were made to evaluate the amount of the cephalosporin compound of this invention which can be recovered as the antibacterially active compound from the urine after it was orally given to mice.
To mice of ICR-strain (male, 4-weeks-aged, three in each group) was orally administered the compound under test identified below, at a dosage of the compound of 0.5 mg per mouse. The compound under test was given as a suspension of the test compound in a solution of 0.2% carboxymethylcellulose (CMC) in water. By the end of 4 hours after the administration of the test compound, all the amounts of the urine excreted by the treated mice were collected together, and the total quantity of the cephalosporin compound of this invention (as the free carboxylic acid form) in the urine was determined according to a paper-disc assay method using Escherichia coli K-12 8236 as the assaying strain. […]

For data set [2], the system named is Staphylococcus aureus 209P JC-1. Kind of data set: MIC by agar-dilution method, Staphylococcus aureus 209P JC-1. Format: cell-based. To be noted: read-out: MIC. An excerpt:
(§1) The compounds of this invention are all novel compounds.

For data set [3], the system named is Staphylococcus aureus Smith. Briefly: MIC by agar-dilution method, Staphylococcus aureus Smith. Type of data set: cell-based. To be noted: read-out: MIC.
Text: as §1

Data set [4] relates to Escherichia coli NIHJ JC-2. Briefly: MIC by agar-dilution method, Escherichia coli NIHJ JC-2. Type of data set: cell-based. To be noted: NIHJJC2, read-out: MIC.
Text: as §1

The subject of data set [5] is Klebsiella pneumoniae PCI 602. Briefly: MIC by agar-dilution method, Klebsiella pneumoniae PCI 602. To be noted: PCI602, read-out: MIC. Type of data set: cell-based.
Text: as §1

The subject of data set [6] is Proteus mirabilis GN 79. Briefly: MIC by agar-dilution method, Proteus mirabilis GN 79. Format: cell-based. As to conditions: GN79, read-out: MIC.
Text: as §1

Data set [7] has as its system Proteus vulgaris GN 76. Briefly: MIC by agar-dilution method, Proteus vulgaris GN 76. To be noted: GN76, read-out: MIC. Format: cell-based.
Text: as §1

Data set [8] concerns Proteus rettgeri GN 624. Kind of data set: MIC by agar-dilution method, Proteus rettgeri GN 624. Format: cell-based. As to conditions: Providencia rettgeri, GN624, read-out: MIC.
Text: as §1

Data set [9] relates to Salmonella typhimurium LT-2. Briefly: MIC by agar-dilution method, Salmonella typhimurium LT-2. Format: cell-based. As to conditions: Salmonella enterica, read-out: MIC.
Text: as §1

For data set [10], the system named is Serratia marcescens No. 1. Briefly: MIC by agar-dilution method, Serratia marcescens No. 1. Type of data set: cell-based. To be noted: read-out: MIC.
Text: as §1

Data set [11] deals with Pseudomonas aeruginosa MB 3833. Kind of data set: MIC by agar-dilution method, Pseudomonas aeruginosa MB 3833. Type of data set: cell-based. As to conditions: MB3833, read-out: MIC.
Text: as §1

`CO/N=C(\C(=O)NC1C(=O)N2C(C(=O)OCOC(=O)C(C)(C)C)=C(/C=C\c3scnc3Cl)CSC12)c1csc(N)n1` (stereo not drawn) [Example 22, 7-[2-methoxyimino-2-(2-aminothiazol-4-yl)acetamido]-3-[2-(4-chlorothiazol-5-yl)vinyl]-3-cephem-4-carboxylic acid (syn-isomer, cis-isomer) pivaloyloxymethyl ester]: the dose excreted at 4 h in data set [1] turned out to be 24%.
As a reminder, the MIC is the lowest concentration found to suppress growth. In the case of `CO/N=C(\C(=O)NC1C(=O)N2C(C(=O)O)=C(/C=C\c3scnc3C)CSC12)c1csc(N)n1` (stereo not drawn) [Example 10, 7-[2-methoxyimino-2-(2-aminothiazol-4-yl)acetamido]-3-[2-(4-methylthiazol-5-yl)vinyl]-3-cephem-4-carboxylic acid trifluoroacetate (cyn-isomer, cis-isomer)], the MIC in data set [2] came out at 0.2 µg/mL; in data set [3], 0.39 µg/mL; in data set [4], 0.39 µg/mL; in data set [5], 0.39 µg/mL; in [6] it was 0.39 µg/mL; in data set [7], 0.2 µg/mL. Besides, the MIC in data set [8] worked out at 3.13 µg/mL; in [9] it was 0.39 µg/mL; in data set [10], 0.39 µg/mL; in data set [11], 25 µg/mL.
Turning to `CO/N=C(\C(=O)NC1C(=O)N2C(C(=O)OCOC(=O)C(C)(C)C)=C(/C=C\c3cncs3)CSC12)c1csc(N)n1` (stereo not drawn) [Example 38, 7-[2-methoxyimino-2-(2-aminothiazol-4-yl)acetamido]-3-[2-(thiazol-5-yl)vinyl]-3-cephem-4-carboxylic acid (syn-isomer, cis-isomer) pivaloyloxymethyl ester], the dose excreted at 4 h in data set [1] came out at 20%.

Values taken from patent publication US4839350A, “Cephalosporin compounds and the production thereof” (Meiji Seika Kaisha, Ltd., priority 1984, dated 1989).
